Test results reported in ChEMBL document CHEMBL3612003, “The interaction of 4-thiazolidinone derivatives containing indolin-2-one moiety with P-glycoprotein studied using K562 cell lines” (Eur J Med Chem, 2015).

How the values were obtained:
K562 [1] = experiment: Resistance index, ratio of IC50 for drug-resistant human K562/ADR cells to IC50 for drug-sensitive human K562 cells; assay type: functional
[2] = Cytotoxicity against human drug-resistant K562/ADR cells expressing high levels of P-glycoprotein assessed as reduction in cell viability incubated for 48 hrs by SRB assay; assay type: functional, cell-based
K562 [3] = experiment: Cytotoxicity against human drug-sensitive K562 cells assessed as reduction in cell viability incubated for 48 hrs by SRB assay; assay type: functional, cell-based; conditions: K562, 48 h
[4] = biological target: ATP-dependent translocase ABCB1 (Homo sapiens, UniProt P08183); experiment: Inhibition of P-glycoprotein in human drug-resistant K562/ADR cells assessed as reduction in P-gp mediated rhodamine 123 efflux by spectrofluorometry; assay type: cell-based
ATP-dependent translocase ABCB1, sequence (P08183 whole entry): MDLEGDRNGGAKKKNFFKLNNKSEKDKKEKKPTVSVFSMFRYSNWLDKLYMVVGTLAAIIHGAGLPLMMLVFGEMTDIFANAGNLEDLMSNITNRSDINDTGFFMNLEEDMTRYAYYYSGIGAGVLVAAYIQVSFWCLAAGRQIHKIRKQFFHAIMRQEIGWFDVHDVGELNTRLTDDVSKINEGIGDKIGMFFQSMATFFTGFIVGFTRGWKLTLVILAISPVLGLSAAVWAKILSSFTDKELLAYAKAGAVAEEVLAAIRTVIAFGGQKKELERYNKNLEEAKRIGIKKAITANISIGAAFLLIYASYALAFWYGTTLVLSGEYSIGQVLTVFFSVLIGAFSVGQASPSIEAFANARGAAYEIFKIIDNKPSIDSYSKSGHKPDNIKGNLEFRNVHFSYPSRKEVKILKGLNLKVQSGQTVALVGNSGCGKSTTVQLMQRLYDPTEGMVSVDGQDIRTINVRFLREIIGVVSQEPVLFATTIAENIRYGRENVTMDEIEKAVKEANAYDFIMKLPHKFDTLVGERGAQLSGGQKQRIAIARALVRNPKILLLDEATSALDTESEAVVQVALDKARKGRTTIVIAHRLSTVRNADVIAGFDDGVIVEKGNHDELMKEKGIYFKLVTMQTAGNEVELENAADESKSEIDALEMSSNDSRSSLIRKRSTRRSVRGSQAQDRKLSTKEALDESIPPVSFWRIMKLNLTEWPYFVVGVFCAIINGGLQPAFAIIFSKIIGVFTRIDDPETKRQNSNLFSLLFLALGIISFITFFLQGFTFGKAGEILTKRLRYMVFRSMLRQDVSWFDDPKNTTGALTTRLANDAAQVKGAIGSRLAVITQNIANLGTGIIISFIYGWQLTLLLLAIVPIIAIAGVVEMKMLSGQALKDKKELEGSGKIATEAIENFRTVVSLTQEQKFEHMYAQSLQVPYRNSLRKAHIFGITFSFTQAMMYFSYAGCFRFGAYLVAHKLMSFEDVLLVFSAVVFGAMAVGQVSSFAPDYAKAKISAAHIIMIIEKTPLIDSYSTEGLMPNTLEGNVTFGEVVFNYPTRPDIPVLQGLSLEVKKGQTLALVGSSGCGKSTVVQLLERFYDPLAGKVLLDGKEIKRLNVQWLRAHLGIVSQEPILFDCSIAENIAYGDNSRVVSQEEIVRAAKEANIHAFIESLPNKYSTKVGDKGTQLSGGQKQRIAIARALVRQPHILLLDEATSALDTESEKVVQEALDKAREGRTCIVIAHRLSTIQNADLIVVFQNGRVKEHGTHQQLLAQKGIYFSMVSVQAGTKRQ

Compound	Ki [4] [nM]	Ratio IC50 (K562 [1])	IC50 [2] [nM]	IC50 (K562 [3]) [nM]
CCN(CC)CCCn1c(=O)/c(=C/c2ccccc2O)s/c1=C1/C(=O)Nc2ccc(C)cc21	1710	2.07	30600	14800
CN(C)CCn1c(=O)/c(=C/c2ccc(O)cc2)s/c1=C1/C(=O)Nc2ccccc21	> 2230	1.44	6160	4280
CCN(CC)CCCn1c(=O)/c(=C/c2ccc3c(c2)OCO3)s/c1=C1/C(=O)Nc2ccc(F)cc21	> 2230	1.7	12500	7380
CCN(CC)CCCn1c(=O)/c(=C/c2ccc3c(c2)OCO3)s/c1=C1/C(=O)Nc2cc(F)ccc21	> 2230	1.32	2980	2260
CCN(CC)CCCn1c(=O)/c(=C/c2ccc3c(c2)OCO3)s/c1=C1/C(=O)Nc2ccc(Cl)cc21	1780	1.04	5050	4860
CCN(CC)CCCn1c(=O)/c(=C/c2ccc(F)c(F)c2)s/c1=C1/C(=O)Nc2ccc(F)cc21	> 2230	0.48	6480	13400
Cc1ccc2c(c1)/C(=c1\s/c(=C\c3ccc(O)cc3)c(=O)n1CCN(C)C)C(=O)N2	> 2230	1.01	6800	6740
CN(C)CCn1c(=O)/c(=C/c2ccc(O)cc2)s/c1=C1/C(=O)Nc2cc(F)ccc21	> 2230	1.28	7160	5590
CN(C)CCn1c(=O)/c(=C/c2ccc3c(c2)OCO3)s/c1=C1/C(=O)Nc2ccccc21	> 2230	0.59	780	1320
CCN(CC)CCCn1c(=O)/c(=C/c2ccc(O)cc2)s/c1=C1/C(=O)Nc2ccc(Cl)cc21	> 2230	1.98	48800	24600
CCN(CC)CCCn1c(=O)/c(=C/c2ccccc2O)s/c1=C1\C(=O)Nc2ccc(C)cc21	1710	2.07	30600	14800
CN(C)CCn1c(=O)/c(=C/c2ccc(O)cc2)s/c1=C1\C(=O)Nc2ccccc21	> 2230	1.44	6160	4280
CCN(CC)CCCn1c(=O)/c(=C/c2ccc3c(c2)OCO3)s/c1=C1\C(=O)Nc2ccc(F)cc21	> 2230	1.7	12500	7380
CCN(CC)CCCn1c(=O)/c(=C/c2ccc3c(c2)OCO3)s/c1=C1\C(=O)Nc2cc(F)ccc21	> 2230	1.32	2980	2260
CCN(CC)CCCn1c(=O)/c(=C/c2ccc3c(c2)OCO3)s/c1=C1\C(=O)Nc2ccc(Cl)cc21	1780	1.04	5050	4860
CCN(CC)CCCn1c(=O)/c(=C/c2ccc(F)c(F)c2)s/c1=C1\C(=O)Nc2ccc(F)cc21	> 2230	0.48	6480	13400
Cc1ccc2c(c1)/C(=c1/s/c(=C\c3ccc(O)cc3)c(=O)n1CCN(C)C)C(=O)N2	> 2230	1.01	6800	6740
CN(C)CCn1c(=O)/c(=C/c2ccc(O)cc2)s/c1=C1\C(=O)Nc2ccc(F)cc21	1340	4.73	6140	1300
CN(C)CCn1c(=O)/c(=C/c2ccc(O)cc2)s/c1=C1\C(=O)Nc2cc(F)ccc21	> 2230	1.28	7160	5590
CN(C)CCn1c(=O)/c(=C/c2ccc3c(c2)OCO3)s/c1=C1\C(=O)Nc2ccccc21	> 2230	0.59	780	1320
CCN(CC)CCCn1c(=O)/c(=C/c2ccc(O)cc2)s/c1=C1\C(=O)Nc2ccc(Cl)cc21	> 2230	1.98	48800	24600
COc1cccc2c1C(=O)c1c(O)c3c(c(O)c1C2=O)C[C@@](O)(C(=O)CO)C[C@@H]3O[C@H]1C[C@H](N)[C@H](O)[C@H](C)O1 [DOXORUBICIN]		6.75		

Now from value to molecule, other results behind:

Ki [4] [nM]	Compound	Ratio IC50 (K562 [1])	IC50 [2] [nM]	IC50 (K562 [3]) [nM]
480	CCN(CC)CCCn1c(=O)/c(=C/c2ccc3c(c2)OCO3)s/c1=C1/C(=O)Nc2ccccc21	5.53	7950	1440
940	CCN(CC)CCCn1c(=O)/c(=C/c2ccc3c(c2)OCO3)s/c1=C1/C(=O)Nc2ccc(C)cc21	2.46	5030	2040
1010	CCN(CC)CCCn1c(=O)/c(=C/c2ccc(F)cc2F)s/c1=C1/C(=O)Nc2cc(F)ccc21	1.12	4120	3690
730	CCN(CC)CCCn1c(=O)/c(=C/c2cc(OC)c(OC)c(OC)c2)s/c1=C1/C(=O)Nc2ccccc21	2.58	6650	2580
320	CCN(CC)CCCn1c(=O)/c(=C/c2cc(OC)c(OC)c(OC)c2)s/c1=C1/C(=O)Nc2ccc(C)cc21	0.48	2020	4170
120	CCN(CC)CCCn1c(=O)/c(=C/c2cc(OC)c(OC)c(OC)c2)s/c1=C1/C(=O)Nc2ccc(F)cc21	1.2	2860	2390
470	CCN(CC)CCCn1c(=O)/c(=C/c2cc(OC)c(OC)c(OC)c2)s/c1=C1/C(=O)Nc2cc(F)ccc21	1.39	1640	1180
220	CCN(CC)CCCn1c(=O)/c(=C/c2cc(OC)c(OC)c(OC)c2)s/c1=C1/C(=O)Nc2ccc(Cl)cc21	2.02	1650	820
1340	CN(C)CCn1c(=O)/c(=C/c2ccc(O)cc2)s/c1=C1/C(=O)Nc2ccc(F)cc21	4.73	6140	1300
480	CCN(CC)CCCn1c(=O)/c(=C/c2ccc3c(c2)OCO3)s/c1=C1\C(=O)Nc2ccccc21	5.53	7950	1440
940	CCN(CC)CCCn1c(=O)/c(=C/c2ccc3c(c2)OCO3)s/c1=C1\C(=O)Nc2ccc(C)cc21	2.46	5030	2040
1010	CCN(CC)CCCn1c(=O)/c(=C/c2ccc(F)cc2F)s/c1=C1\C(=O)Nc2cc(F)ccc21	1.12	4120	3690
730	CCN(CC)CCCn1c(=O)/c(=C/c2cc(OC)c(OC)c(OC)c2)s/c1=C1\C(=O)Nc2ccccc21	2.58	6650	2580
320	CCN(CC)CCCn1c(=O)/c(=C/c2cc(OC)c(OC)c(OC)c2)s/c1=C1\C(=O)Nc2ccc(C)cc21	0.48	2020	4170
120	CCN(CC)CCCn1c(=O)/c(=C/c2cc(OC)c(OC)c(OC)c2)s/c1=C1\C(=O)Nc2ccc(F)cc21	1.2	2860	2390
470	CCN(CC)CCCn1c(=O)/c(=C/c2cc(OC)c(OC)c(OC)c2)s/c1=C1\C(=O)Nc2cc(F)ccc21	1.39	1640	1180
220	CCN(CC)CCCn1c(=O)/c(=C/c2cc(OC)c(OC)c(OC)c2)s/c1=C1\C(=O)Nc2ccc(Cl)cc21	2.02	1650	820
